Values of other authors in US20170000799A1, “ORAL PHARMACEUTICAL COMPOSITION” (LABORATORIOS DEL DR. ESTEVE, S.A., priority 2013, published 2017).

Conditions: many organic solvents, including ethanol

solubility in organic solvents: low solubility
SMILES: O=C(NC[C@H]1CN(c2ccc(N3CCOCC3=O)cc2)C(=O)O1)c1ccc(Cl)s1 [Rivaroxaban, 5-Cloro-N-[2-oxo-3-[4-(3-oxomorpholin-4-yl)phenyl]-1,3-oxazolidin-5(S)-ylmethyl]-thiophene-2-carboxamide]
